Measured values published in patent US10376523B2, “Aqueous composition containing ripasudil, or a salt, or a solvate thereof” (KOWA COMPANY, LTD., priority 2014, dated 2019).

Tests used:
[1] = system: Candida albicans NERC 1594 strain; test: Test Example 1: growth inhibitory activity on Candida albicans (membrane filter method, colony count); type: cell-based; details: 2 g ripasudil monohydrochloride dihydrate in 270 mL phosphate buffer pH 7.2
Experimental: In order to examine ripasudil for the presence or absence of growth inhibitory activity on microorganisms (bacteria and fungi), the following tests were performed using Pseudomonas aeruginosa as a bacterium and Candida albicans as a fungus. Two grams of ripasudil monohydrochloride dihydrate were dissolved in 270 mL of phosphate buffer (pH 7.2) to obtain a dilute sample solution. A sample was obtained by mixing 0.5 mL of the test bacterial suspension with 50 mL of the dilute sample solution (note that a mixture of 0.5 mL of the test bacterial suspension and 50 mL of phosphate buffer (pH 7.2) was used as a control sample). […] After the culture, the number of colonies formed was counted (note that the test was performed twice, and an average value was determined). From the determined number of colonies, a growth inhibitory ratio (%) was calculated using the following equation: Growth inhibitory ratio (%)=|(the number of colonies for the control sample−the number of colonies for the sample)|/the number of colonies for the control sample×100 Candida albicans NERC 1594 strain was seeded on the Sabouraud-dextrose liquid medium (Merck Corporation) and cultured at 20 to 25° C. for 44 to 46 hours. […] After the culture, the number of colonies formed was counted (note that the test was performed twice, and an average value was determined). A growth inhibitory ratio (%) was also calculated.

[2] = system: Pseudomonas aeruginosa NBRC 13275 strain; test: Test Example 1: growth inhibitory activity on Pseudomonas aeruginosa (membrane filter method, colony count); type: cell-based; details: 2 g ripasudil monohydrochloride dihydrate in 270 mL phosphate buffer pH 7.2
Experimental: In order to examine ripasudil for the presence or absence of growth inhibitory activity on microorganisms (bacteria and fungi), the following tests were performed using Pseudomonas aeruginosa as a bacterium and Candida albicans as a fungus. Pseudomonas aeruginosa NBRC 13275 strain was seeded on the soybean-casein digest medium (Merck Corporation) and cultured at 30 to 35° C. for 20 to 22 hours. The culture was then diluted with peptone saline buffer (pH 7.0) to 1,000 CFU/mL or less to obtain a test bacterial suspension. Two grams of ripasudil monohydrochloride dihydrate were dissolved in 270 mL of phosphate buffer (pH 7.2) to obtain a dilute sample solution. A sample was obtained by mixing 0.5 mL of the test bacterial suspension with 50 mL of the dilute sample solution (note that a mixture of 0.5 mL of the test bacterial suspension and 50 mL of phosphate buffer (pH 7.2) was used as a control sample). […] After the culture, the number of colonies formed was counted (note that the test was performed twice, and an average value was determined). From the determined number of colonies, a growth inhibitory ratio (%) was calculated using the following equation: Growth inhibitory ratio (%)=|(the number of colonies for the control sample−the number of colonies for the sample)|/the number of colonies for the control sample×100

[3] = at a concentration of 0.001%; cited from earlier work

C[C@H]1CNCCCN1S(=O)(=O)c1cccc2cncc(F)c12 [ripasudil, 4-fluoro-5-[[(2S)-2-methyl-1,4-diazepan-1-yl]sulfonyl]isoquinoline]
Number of Formed Colonies, Sample ([1]; contact 30 minutes or longer, average of two tests, control sample 37 colonies): 23 | Growth Inhibitory Ratio ([1]; versus control sample): 37.8% | Number of Formed Colonies, Sample ([2]; contact 30 minutes or longer, average of two tests, control sample 47 colonies): 0 | Growth Inhibitory Ratio ([2]; versus control sample): 100%

benzalkonium chloride
antimicrobial activity [3]: sufficient antimicrobial activity is not demonstrated
